Patent US11000488B2 (priority 2019, dated 2021)
Read-outs that look alike come from different tables or passages of the source.

Columns and labels:
[1] = human, in vivo, cited from earlier work
[2] = steady-state pharmacokinetics, 50 mg tramadol vs 20 mg desmetramadol every 6 hours, nine doses, trials A and B (B with paroxetine); conditions: after tramadol dosing, with vs without paroxetine
[3] = drug-related adverse events, safety population, trials A and B
pupil diameter = experiment: pupillometry, trial A; assay type: in vivo, human; conditions: after dosing
cold-induced pain = experiment: cold pressor test (cold-induced pain), trials A and B; assay type: in vivo, human
[4] = single dose 100 mg racemic tramadol, cited from earlier work
[5] = respiration and other vital signs, trials A and B; conditions: trial A
[6] = trial A (n = 43, males), 0-10 VAS
[7] = trial B (n = 18, females), with paroxetine
[8] = trial B (n = 18, females), with paroxetine, 0-10 VAS
[9] = trial B (n = 42, males), with paroxetine
[10] = trial B (n = 42, males), with paroxetine, 0-10 VAS

COc1ccc2c3c1O[C@H]1C(=O)CC[C@@]4(O)[C@@H](C2)N(C)CC[C@]314 [oxycodone]
lethal oral dose [1]: 40 mg

COc1cccc([C@@]2(O)CCCC[C@@H]2CN(C)C)c1 [(+)-tramadol, 1R,2R-tramadol, reference compound]
levels in trial B as % of levels in trial A [2]: 200%

COc1cccc(C2(O)CCCCC2CN(C)C)c1 (single isomer, unassigned; (-)) [(−)-tramadol, 1S,2S-tramadol, reference compound]
levels in trial B as % of levels in trial A [2]: 200%

COc1cccc(C2(O)CCCCC2CN(C)C)c1 (racemic) [tramadol]
Deaths ([3]; trial A): 0 (0) N (%)
Severe AEs ([3]; trial A): 0 (0) N (%)
subjects reporting drug-related AEs ([3]; trial A): 49%
All AEs ([3]; trial A (N = 43)): 20 (49) N (%)
Dizziness ([3]; trial A, all subjects): 5 (12) N (%)
Euphoria ([3]; trial A, all subjects): 0 (0) N (%)
Feel abnormal ([3]; trial A, all subjects): 1 (2) N (%)
Feel hot ([3]; trial A, all subjects): 0 (0) N (%)
Headache ([3]; trial A, all subjects): 7 (17) N (%)
Nausea ([3]; trial A, all subjects): 5 (12) N (%)
Presyncope ([3]; trial A, all subjects): 0 (0) N (%)
Pruritus ([3]; trial A, all subjects): 4 (10) N (%)
Somnolence ([3]; trial A, all subjects): 2 (5) N (%)
Spasticity ([3]; trial A, all subjects): 1 (2) N (%)
Sweating ([3]; trial A, all subjects): 0 (0) N (%)
Vomiting ([3]; trial A, all subjects): 1 (2) N (%)
Dizziness ([3]; trial A, male): 5 (12) N (%)
Euphoria ([3]; trial A, male): 0 (0) N (%)
Feel abnormal ([3]; trial A, male): 1 (2) N (%)
Feel hot ([3]; trial A, male): 0 (0) N (%)
Headache ([3]; trial A, male): 7 (17) N (%)
Nausea ([3]; trial A, male): 5 (12) N (%)
Presyncope ([3]; trial A, male): 0 (0) N (%)
Pruritus ([3]; trial A, male): 4 (10) N (%)
Somnolence ([3]; trial A, male): 2 (5) N (%)
Spasticity ([3]; trial A, male): 1 (2) N (%)
Sweating ([3]; trial A, male): 0 (0) N (%)
Vomiting ([3]; trial A, male): 1 (2) N (%)
Deaths ([3]; trial B): 0 (0) N (%)
Severe AEs ([3]; trial B): 0 (0) N (%)
All AEs ([3]; trial B (N = 60), with paroxetine): 30 (50) N (%)
Dizziness ([3]; trial B, all subjects): 8 (13) N (%)
Euphoria ([3]; trial B, all subjects): 1 (2) N (%)
Feel abnormal ([3]; trial B, all subjects): 2 (3) N (%)
Feel hot ([3]; trial B, all subjects): 0 (0) N (%)
Headache ([3]; trial B, all subjects): 6 (10) N (%)
Nausea ([3]; trial B, all subjects): 8 (13) N (%)
Presyncope ([3]; trial B, all subjects): 1 (2) N (%)
Pruritus ([3]; trial B, all subjects): 1 (2) N (%)
Somnolence ([3]; trial B, all subjects): 4 (7) N (%)
Spasticity ([3]; trial B, all subjects): 3 (5) N (%)
Sweating ([3]; trial B, all subjects): 1 (2) N (%)
Vomiting ([3]; trial B, all subjects): 2 (3) N (%)
Dizziness ([3]; trial B, female): 4 (22) N (%)
Euphoria ([3]; trial B, female): 0 (0) N (%)
Feel abnormal ([3]; trial B, female): 0 (0) N (%)
Feel hot ([3]; trial B, female): 0 (0) N (%)
Headache ([3]; trial B, female): 6 (33) N (%)
Nausea ([3]; trial B, female): 2 (11) N (%)
Presyncope ([3]; trial B, female): 0 (0) N (%)
Pruritus ([3]; trial B, female): 1 (6) N (%)
Somnolence ([3]; trial B, female): 2 (11) N (%)
Spasticity ([3]; trial B, female): 0 (0) N (%)
Sweating ([3]; trial B, female): 0 (0) N (%)
Vomiting ([3]; trial B, female): 0 (0) N (%)
Dizziness ([3]; trial B, male): 4 (10) N (%)
Euphoria ([3]; trial B, male): 1 (2) N (%)
Feel abnormal ([3]; trial B, male): 2 (5) N (%)
Feel hot ([3]; trial B, male): 0 (0) N (%)
Headache ([3]; trial B, male): 0 (0) N (%)
Nausea ([3]; trial B, male): 6 (14) N (%)
Presyncope ([3]; trial B, male): 1 (2) N (%)
Pruritus ([3]; trial B, male): 0 (0) N (%)
Somnolence ([3]; trial B, male): 2 (5) N (%)
Spasticity ([3]; trial B, male): 3 (7) N (%)
Sweating ([3]; trial B, male): 1 (2) N (%)
Vomiting ([3]; trial B, male): 2 (5) N (%)
headache, tramadol AE profile compared to the desmetramadol AE profile ([3]; trial B, same subjects): −40%
nausea, tramadol AE profile compared to the desmetramadol AE profile ([3]; trial B, same subjects): −50%
presyncope, tramadol AE profile compared to the desmetramadol AE profile ([3]; trial B, same subjects): −83%
pruritus, tramadol AE profile compared to the desmetramadol AE profile ([3]; trial B, same subjects): −75%
somnolence, tramadol AE profile compared to the desmetramadol AE profile ([3]; trial B, same subjects): −60%
vomiting, tramadol AE profile compared to the desmetramadol AE profile ([3]; trial B, same subjects): −78%
subjects reporting drug-related AEs ([3]; trial B, with paroxetine): 50%
pupil diameter, mean paired reduction [SD] compared to placebo (pupil diameter): −0.7 (0.6) millimeters
average duration of tolerance to pain (cold-induced pain; trial A): 62 s
Time to first pain, mean difference versus placebo (cold-induced pain; trial A (n = 43, males)): 2.1 s
Time to withdrawal, mean difference versus placebo (cold-induced pain; trial A (n = 43, males)): 12.4 (4.4) seconds
Pain intensity at 30 seconds, MPD versus placebo (cold-induced pain; [6]): −0.46
Pain intensity at first perception, MPD versus placebo (cold-induced pain; [6]): −0.21
Time to withdrawal, mean difference versus placebo (cold-induced pain; trial A (n = 43, males), listed as TRAMADOL): 12.4 s
Average (SD) subject-reported pain scores at 30 seconds (cold-induced pain; trial A, 0-10 VAS): 6.0 (1.7)
Time to first pain, MPD versus placebo (cold-induced pain; [7]): 2.6 s
Time to withdrawal, MPD versus placebo (cold-induced pain; [7]): 7.5 s
Pain intensity at 30 seconds, MPD versus placebo (cold-induced pain; [8]): 0.03
Pain intensity at first perception, MPD versus placebo (cold-induced pain; [8]): 0.01
Time to first pain, MPD versus placebo (cold-induced pain; [9]): 1.5 s
Time to withdrawal, MPD versus placebo (cold-induced pain; [9]): 6.9 (1.6) seconds
Pain intensity at 30 seconds, MPD versus placebo (cold-induced pain; [10]): failed to statistically differentiate from placebo
Pain intensity at first perception, MPD versus placebo (cold-induced pain; [10]): −0.08
Pain intensity at 30 seconds, MPD versus placebo (cold-induced pain; trial B (n = 42, males), with paroxetine, 0-10 VAS, listed as TRAMADOL): −0.25
Time to withdrawal, MPD versus placebo (cold-induced pain; trial B (n = 42, males), with paroxetine, listed as TRAMADOL): 6.9 s
subjects experiencing nausea ([4]; EM group (11 EMs)): 9%
subjects experiencing nausea ([4]; UM group (11 UMs)): ~50%
pre-dose versus post-dose effect on respiratory rate compared to placebo or each other [5]: no discernable pre-dose versus post-dose effect
lethal dose [1]: > 5 grams

COc1ccc2c3c1O[C@H]1C(=O)CC[C@H]4[C@@H](C2)N(C)CC[C@]314 [hydrocodone]
lethal oral dose [1]: 90 mg
